Results taken from PubChem BioAssay AID248 (DTP/NCI, 2004).
Several values for one entry are separate records, joined by “and”; a condition that tells them apart may be missing. Equal entries are not always repeated. Inconclusive results and toxic doses are left out. Rule as the data show it: active = T/C of 150% or more; inactive = T/C below 125%.

Test system: L1210 leukemia ip in BDF1 mice, survival T/C
Experiment: NCI In Vivo Anticancer Drug Screen. Data for tumor model L1210 Leukemia (intraperitoneal) in B6D2F1 (BDF1) mice
Details: endpoint: mean survival time, higher = longer survival
Method in brief: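 Tumor was transplanted into mice, which were then dosed with test compound or vehicle alone. Survival was recorded for each group, and the treated figure was expressed relative to the control figure.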

[1] = dose: 100.0 mg/kg/injection, schedule: Q01DX009 (ip), vehicle: Klucel (hydroxypropylcellulose) (HPC)
[2] = dose: 100.0 mg/kg/injection, schedule: Q04DX003 (ip), vehicle: Klucel (hydroxypropylcellulose) (HPC)
[3] = dose: 200.0 mg/kg/injection, schedule: Q01DX009 (ip), vehicle: Klucel (hydroxypropylcellulose) (HPC)
[4] = dose: 200.0 mg/kg/injection, schedule: Q04DX003 (ip), vehicle: Klucel (hydroxypropylcellulose) (HPC)
[5] = dose: 400.0 mg/kg/injection, schedule: Q04DX003 (ip), vehicle: Klucel (hydroxypropylcellulose) (HPC)
[6] = dose: 50.0 mg/kg/injection, schedule: Q01DX001 (ip), vehicle: saline
[7] = dose: 100.0 mg/kg/injection, schedule: Q01DX001 (ip), vehicle: saline
[8] = dose: 200.0 mg/kg/injection, schedule: Q01DX001 (ip), vehicle: saline
[9] = dose: 400.0 mg/kg/injection, schedule: Q01DX001 (ip), vehicle: saline
[10] = dose: 100.0 mg/kg/injection, schedule: Q01DX001 (ip), vehicle: saline with Tween-80
[11] = dose: 200.0 mg/kg/injection, schedule: Q01DX001 (ip), vehicle: saline with Tween-80
[12] = dose: 400.0 mg/kg/injection, schedule: Q01DX001 (ip), vehicle: saline with Tween-80
[13] = dose: 100.0 mg/kg/injection, schedule: Q04DX003 (ip), vehicle: saline
[14] = dose: 200.0 mg/kg/injection, schedule: Q04DX003 (ip), vehicle: saline
[15] = dose: 400.0 mg/kg/injection, schedule: Q04DX003 (ip), vehicle: saline

Measured: T/C

CC(=O)OC1CCC2(C)C(CCC3C2CC(=O)C2(C)C3CC(Sc3ccc(N(CCCl)CCCl)cc3)C2C(C)=O)C1 (stereo unspecified)
inactive: dose: 100.0 mg/kg/injection, schedule: Q01DX001 (sc), vehicle: steriod suspending solution 108 % of control | dose: 200.0 mg/kg/injection, schedule: Q01DX001 (sc), vehicle: steriod suspending solution 103 % of control | dose: 400.0 mg/kg/injection, schedule: Q01DX001 (sc), vehicle: steriod suspending solution 105 % of control

CN1CCSC1=S
inactive: dose: 50.0 mg/kg/injection, schedule: Q01DX009 (ip), vehicle: Klucel (hydroxypropylcellulose) (HPC) 92 % of control | [1] 100 % of control | [2] 105 % of control | [3] 105 % of control | [4] 105 % of control | [5] 94 % of control

CCOc1ccc([N+](=O)[O-])cc1
inactive: dose: 100.0 mg/kg/injection, schedule: Q04DX002 (ip), vehicle: Klucel (hydroxypropylcellulose) (HPC) 100 % of control | dose: 200.0 mg/kg/injection, schedule: Q04DX002 (ip), vehicle: Klucel (hydroxypropylcellulose) (HPC) 91 % of control | dose: 400.0 mg/kg/injection, schedule: Q04DX002 (ip), vehicle: Klucel (hydroxypropylcellulose) (HPC) 103 % of control

Cc1[nH]c(=O)[nH]c(=O)c1CN(C)Cc1cc(Cl)cc(Cl)c1O
inactive: [6] 95 % of control | [7] 95 % of control | [8] 95 % of control | [9] 101 % of control

CC(=O)OC1CC2C(C(=O)O)C2C1OC(C)=O (stereo unspecified)
inactive: [10] 104 % of control | [11] 92 % of control | [12] 95 % of control

O=C1OC2CC3CC2C1C3C(=O)N1CCOCC1 (stereo unspecified)
inactive: [13] 100 % of control and 96 % of control | [14] 91 % of control and 98 % of control | [15] 100 % of control and 98 % of control

CCOc1ccc(N2CSC(=S)N(c3ccc(OCC)cc3)C2)cc1
inactive: [1] 96 % of control | [2] 92 % of control | [3] 99 % of control | [4] 92 % of control | [5] 92 % of control

OC(c1ccc(OCc2ccccc2)cc1)c1nccc2ccccc12 (stereo unspecified)
inactive: dose: 100.0 mg/kg/injection, schedule: Q01DX001 (ip), vehicle: acetone 88 % of control

CNC(=O)Oc1cccc(C=O)c1
inactive: dose: 100.0 mg/kg/injection, schedule: Q01DX001 (ip), vehicle: other 102 % of control | dose: 200.0 mg/kg/injection, schedule: Q01DX001 (ip), vehicle: other 117 % of control | dose: 400.0 mg/kg/injection, schedule: Q01DX001 (ip), vehicle: other 102 % of control

CC(C)CCCC(C)C1CCC2C3CCC4CC(I)CCC4(C)C3CCC12C (stereo unspecified)
inactive: [10] 93 % of control | [11] 95 % of control | [12] 90 % of control

CCOC(Nc1ccc([N+](=O)[O-])cc1)C(=O)c1ccccc1 (stereo unspecified)
inactive: [7] 93 % of control | [8] 97 % of control | [9] 100 % of control

CCc1c(N)nc(N)nc1Nc1ccc(C)cc1
inactive: dose: 6.0 mg/kg/injection, schedule: Q01DX Z (ip), vehicle: methylcellulose (MC) 95 % of control | dose: 12.0 mg/kg/injection, schedule: Q01DX Z (ip), vehicle: methylcellulose (MC) 97 % of control

Nc1c(Cl)ncnc1Nc1cccc(C(F)(F)F)c1
inactive: [2] 92 % of control | [4] 97 % of control | [5] 104 % of control

O=C(CN(CCO)CCO)c1ccc([N+](=O)[O-])cc1
inactive: dose: 75.0 mg/kg/injection, schedule: Q01DX001 (ip), vehicle: saline 101 % of control

C#CCN(CCCC)CCCC
inactive: dose: 100.0 mg/kg/injection, schedule: Q04DX002 (ip), vehicle: saline with Tween-80 95 % of control | dose: 200.0 mg/kg/injection, schedule: Q04DX002 (ip), vehicle: saline with Tween-80 100 % of control

COC(=O)C(=O)OC(=O)C(=O)OC
inactive: dose: 25.0 mg/kg/injection, schedule: Q04DX003 (ip), vehicle: saline 104 % of control | dose: 50.0 mg/kg/injection, schedule: Q04DX003 (ip), vehicle: saline 120 % of control | [13] 92 % of control

CC(=O)/C(=C\c1ccc(N(C)C)cc1)C(C)=[N+](C)C(=O)c1c(/[N+](C)=C(C)\C(=C\c2ccc(N(C)C)cc2)C(C)=O)ncn1C
inactive: [6] 103 % of control | [7] 103 % of control and 90 % of control | [8] 97 % of control and 118 % of control

CCOC(=O)c1ccc(NCC(=O)CNc2nc(N)nc(N)c2[N+](=O)[O-])cc1
inactive: dose: 75.0 mg/kg/injection, schedule: Q01DX001 (ip), vehicle: other 95 % of control | dose: 150.0 mg/kg/injection, schedule: Q01DX001 (ip), vehicle: other 90 % of control | dose: 300.0 mg/kg/injection, schedule: Q01DX001 (ip), vehicle: other 87 % of control

C=CCSC(=S)SCc1cccc(Cl)c1
inactive: dose: 100.0 mg/kg/injection, schedule: Q01DX009 (ip), vehicle: saline 101 % of control | dose: 100.0 mg/kg/injection, schedule: Q04DX002 (ip), vehicle: saline 100 % of control | dose: 200.0 mg/kg/injection, schedule: Q01DX009 (ip), vehicle: saline 101 % of control | dose: 200.0 mg/kg/injection, schedule: Q04DX002 (ip), vehicle: saline 100 % of control | dose: 400.0 mg/kg/injection, schedule: Q01DX009 (ip), vehicle: saline 99 % of control | dose: 400.0 mg/kg/injection, schedule: Q04DX002 (ip), vehicle: saline 97 % of control

Cc1cc(=O)[nH]c2c(O)ccc([N+](=O)[O-])c12
inactive: [13] 103 % of control | [14] 103 % of control | [15] 103 % of control

CCCCC[CH2][Sn](=[O])[CH2]CCCCC
inactive: [10] 105 % of control | [11] 100 % of control | [12] 103 % of control
